Assays:
Assay type in all cases: cell-based
[1] = test system: HEK 293T cells expressing TRPV1^His and Ca2+-dependent human insulin construct; assay: RF dependent proinsulin release (ELISA)
Experimental: (§1) RF dependent release of calcium dependent human insulin: 24 h prior to the study, cells were placed in serum free medium at 32° C. to ensure minimal activation of TRPV1 and calcium dependent pathways. On the day of study, cells were preincubated for 30 min in 500 μl PBS or 500 μl of functionalized iron oxide nanoparticles (1 mg/ml) resuspended in PBS. Cells were washed three times in PBS before incubation in 300 μl of calcium imaging buffer at room temperature (control) or in a RF field at room temperature. The supernatant was removed at 15, 30, 45 or 60 min depending on the study, spun to remove cell debris and frozen at −80° C. until assay. For gene expression analysis, cells from the supernatant and cover glass were lysed and the lysate stored at […] until RNA purification. For apoptosis studies, the cells were incubated with functionalized nanoparticles at 1, 2, 4 or 8 mg/ml before RF treatment and immunocytochemistry. […]
(§2) Assays. Proinsulin was measured in cell supernatants by ELISA (Alpco, Salem, N.H.) according to manufacturer's protocol. Blood glucose was determined using a Breeze 2 glucometer (Bayer; Leverkusen, Germany). […] Plasma levels of human insulin, produced by xenografts, were determined in mouse plasma by human specific ELISA (Alpco).

[2] = test system: HEK 293T cells expressing TRPV1^His and Ca2+-dependent human insulin construct; assay: RF dependent insulin gene expression (real-time PCR); conditions: ruthenium red
Experimental: (§3) RF dependent release of calcium dependent human insulin: 24 h prior to the study, cells were placed in serum free medium at 32° C. to ensure minimal activation of TRPV1 and calcium dependent pathways. On the day of study, cells were preincubated for 30 min in 500 μl PBS or 500 μl of functionalized iron oxide nanoparticles (1 mg/ml) resuspended in PBS. Cells were washed three times in PBS before incubation in 300 μl of calcium imaging buffer at room temperature (control) or in a RF field at room temperature. The supernatant was removed at 15, 30, 45 or 60 min depending on the study, spun to remove cell debris and frozen at −80° C. until assay. For gene expression analysis, cells from the supernatant and cover glass were lysed and the lysate stored at […] until RNA purification. For apoptosis studies, the cells were incubated with functionalized nanoparticles at 1, 2, 4 or 8 mg/ml before RF treatment and immunocytochemistry. For RF dependent time course from stable PC12 cells, cells were left in serum containing medium prior to treatment to more accurately replicate conditions in vivo before performing the studies as described above. Medium was removed for assay at 15 and 30 mins.
(§4) For studies examining the role of TRP channels in RF mediated proinsulin release, ruthenium red (100 μM) was added to the calcium imaging buffer. […]

[3] = test system: HEK 293T cells transfected with TRPV1, BAPTM and calcium dependent human insulin; assay: RF dependent proinsulin release, dual component system; conditions: ruthenium red, TRPV1 BAP system
Experimental: as §1, §2

[4] = test system: HEK 293T cells transfected with TRPV1, BAPTM and calcium dependent human insulin; assay: RF dependent insulin gene expression, dual component system; conditions: ruthenium red, TRPV1 BAP system
Experimental: as §3, §4

Compound: N.N.N.N.N.N.N.N.N.N.N.N.N.N.[Cl-].[Cl-].[Cl-].[Cl-].[Cl-].[Cl-].[O-2].[O-2].[Ru+3].[Ru+3].[Ru+4] [ruthenium red]
- Effect on RF dependent proinsulin release ([1]; ruthenium red 100 μM in calcium imaging buffer): blocked
- Effect on RF dependent insulin gene expression [2]: blocked
- Effect on RF dependent proinsulin release [3]: blocked
- Effect on RF dependent insulin gene expression [4]: blocked

Compound: C=CC[C@@H]1/C=C(\C)C[C@H](C)C[C@H](OC)[C@H]2O[C@@](O)(C(=O)C(=O)N3CCCC[C@H]3C(=O)O[C@H](/C(C)=C/[C@@H]3CC[C@@H](O)[C@H](OC)C3)[C@H](C)[C@@H](O)CC1=O)[C@H](C)C[C@@H]2OC [tacrolimus, Tacrolimus]
- Effect on RF dependent proinsulin release ([1]; Tacrolimus 100 nM, preincubation 24 hours): blocked
